Consider 19 compounds from US11878975B2, “Substituted indole compounds useful as TLR inhibitors” (BRISTOL-MYERS SQUIBB COMPANY, priority 2017, dated 2024).

A value given as a limit tells only on which side of the number the result lay.

Holding throughout (type): cell-based
One experiment addresses T1, human TLR9 (Homo sapiens, UniProt Q9NR96).
T1 construct: host or cells: HEK-Blue cells
T1 sequence (Q9NR96 26-1032): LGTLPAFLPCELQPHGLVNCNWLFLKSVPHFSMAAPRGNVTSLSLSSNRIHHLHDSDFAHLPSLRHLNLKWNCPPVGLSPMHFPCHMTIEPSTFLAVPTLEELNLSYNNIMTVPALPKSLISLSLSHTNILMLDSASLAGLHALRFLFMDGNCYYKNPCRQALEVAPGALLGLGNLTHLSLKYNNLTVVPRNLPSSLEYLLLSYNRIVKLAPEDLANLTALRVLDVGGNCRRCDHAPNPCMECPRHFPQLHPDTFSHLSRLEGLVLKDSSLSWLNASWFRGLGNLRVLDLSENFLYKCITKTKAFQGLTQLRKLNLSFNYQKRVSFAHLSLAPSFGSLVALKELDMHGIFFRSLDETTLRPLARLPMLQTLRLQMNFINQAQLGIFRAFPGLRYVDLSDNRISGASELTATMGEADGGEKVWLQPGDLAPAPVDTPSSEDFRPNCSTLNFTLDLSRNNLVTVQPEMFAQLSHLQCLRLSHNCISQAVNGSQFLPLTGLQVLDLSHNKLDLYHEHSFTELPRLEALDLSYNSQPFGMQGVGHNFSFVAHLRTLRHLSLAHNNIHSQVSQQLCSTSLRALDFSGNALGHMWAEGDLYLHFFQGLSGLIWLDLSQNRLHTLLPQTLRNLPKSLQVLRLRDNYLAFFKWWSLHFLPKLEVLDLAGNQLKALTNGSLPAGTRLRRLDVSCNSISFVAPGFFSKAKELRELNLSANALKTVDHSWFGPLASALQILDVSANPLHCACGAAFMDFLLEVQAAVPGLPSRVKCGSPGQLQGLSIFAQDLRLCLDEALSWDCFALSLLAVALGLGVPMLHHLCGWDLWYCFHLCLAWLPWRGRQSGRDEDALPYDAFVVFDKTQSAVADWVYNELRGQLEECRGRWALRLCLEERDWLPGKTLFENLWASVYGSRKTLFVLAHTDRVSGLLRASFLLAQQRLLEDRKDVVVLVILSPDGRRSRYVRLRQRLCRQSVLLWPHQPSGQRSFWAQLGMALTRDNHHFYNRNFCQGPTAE
Description: TLR9 inhibition reporter assay (HEK-Blue cells, SEAP reporter, ODN2006 stimulation). Conditions: HEK-Blue cells overexpressing human TLR9, SEAP reporter, ODN2006 5 nM. The method, boiled down:
(§1)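 Ligand levels: TLR7 gardiquimod 7.5 μM, TLR8 R848 15.9 μM, TLR9 ODN2006 5 nM, added after 30 min room-temperature compound pre-incubation at 0.05 nM-50 μM. Reporter SEAP read with HEK-Blue Detection reagent after 22 h, 37° C. Inhibition expressed as % reduction relative to agonist-plus-DMSO and known-inhibitor controls.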
On the technique in general: A reporter such as luciferase makes a cellular process visible.

For a further experiment, the target named is T2, human TLR8 (Homo sapiens, UniProt Q9NR97).
T2 construct: host or cells: HEK-Blue cells
T2 sequence (Q9NR97 27-1041): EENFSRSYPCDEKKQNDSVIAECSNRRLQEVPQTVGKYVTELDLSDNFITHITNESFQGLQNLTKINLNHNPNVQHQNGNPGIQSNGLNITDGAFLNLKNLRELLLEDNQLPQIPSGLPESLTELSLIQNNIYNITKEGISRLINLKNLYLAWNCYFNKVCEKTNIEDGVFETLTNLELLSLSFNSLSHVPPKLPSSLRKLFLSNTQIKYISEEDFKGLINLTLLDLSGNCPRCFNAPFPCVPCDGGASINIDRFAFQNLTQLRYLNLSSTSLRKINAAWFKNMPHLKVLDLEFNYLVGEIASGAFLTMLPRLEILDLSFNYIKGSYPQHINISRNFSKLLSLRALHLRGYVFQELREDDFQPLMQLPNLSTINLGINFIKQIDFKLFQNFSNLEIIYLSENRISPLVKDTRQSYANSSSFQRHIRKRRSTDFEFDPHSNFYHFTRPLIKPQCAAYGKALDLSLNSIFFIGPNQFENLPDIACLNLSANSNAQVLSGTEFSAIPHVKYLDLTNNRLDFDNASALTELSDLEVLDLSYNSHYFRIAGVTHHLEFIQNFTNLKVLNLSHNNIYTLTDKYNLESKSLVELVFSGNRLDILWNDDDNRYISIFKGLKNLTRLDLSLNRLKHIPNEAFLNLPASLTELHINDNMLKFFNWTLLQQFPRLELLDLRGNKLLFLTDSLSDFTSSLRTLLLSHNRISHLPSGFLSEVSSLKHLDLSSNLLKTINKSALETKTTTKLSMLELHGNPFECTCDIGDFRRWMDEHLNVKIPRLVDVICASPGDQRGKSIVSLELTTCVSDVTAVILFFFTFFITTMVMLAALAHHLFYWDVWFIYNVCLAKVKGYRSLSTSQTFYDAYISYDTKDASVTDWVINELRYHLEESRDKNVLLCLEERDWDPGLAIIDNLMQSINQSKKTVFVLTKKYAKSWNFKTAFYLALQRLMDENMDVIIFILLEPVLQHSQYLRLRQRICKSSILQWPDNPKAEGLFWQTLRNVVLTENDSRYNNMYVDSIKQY
Description: TLR8 inhibition reporter assay (HEK-Blue cells, SEAP reporter, R848 stimulation). Conditions: HEK-Blue cells overexpressing human TLR8, SEAP reporter, R848 15.9 μM. The method, boiled down: as §1

The next experiment has as its target T3, human TLR7 (Homo sapiens, UniProt Q9NYK1).
T3 construct: host or cells: HEK-Blue cells
T3 sequence (Q9NYK1 27-1049): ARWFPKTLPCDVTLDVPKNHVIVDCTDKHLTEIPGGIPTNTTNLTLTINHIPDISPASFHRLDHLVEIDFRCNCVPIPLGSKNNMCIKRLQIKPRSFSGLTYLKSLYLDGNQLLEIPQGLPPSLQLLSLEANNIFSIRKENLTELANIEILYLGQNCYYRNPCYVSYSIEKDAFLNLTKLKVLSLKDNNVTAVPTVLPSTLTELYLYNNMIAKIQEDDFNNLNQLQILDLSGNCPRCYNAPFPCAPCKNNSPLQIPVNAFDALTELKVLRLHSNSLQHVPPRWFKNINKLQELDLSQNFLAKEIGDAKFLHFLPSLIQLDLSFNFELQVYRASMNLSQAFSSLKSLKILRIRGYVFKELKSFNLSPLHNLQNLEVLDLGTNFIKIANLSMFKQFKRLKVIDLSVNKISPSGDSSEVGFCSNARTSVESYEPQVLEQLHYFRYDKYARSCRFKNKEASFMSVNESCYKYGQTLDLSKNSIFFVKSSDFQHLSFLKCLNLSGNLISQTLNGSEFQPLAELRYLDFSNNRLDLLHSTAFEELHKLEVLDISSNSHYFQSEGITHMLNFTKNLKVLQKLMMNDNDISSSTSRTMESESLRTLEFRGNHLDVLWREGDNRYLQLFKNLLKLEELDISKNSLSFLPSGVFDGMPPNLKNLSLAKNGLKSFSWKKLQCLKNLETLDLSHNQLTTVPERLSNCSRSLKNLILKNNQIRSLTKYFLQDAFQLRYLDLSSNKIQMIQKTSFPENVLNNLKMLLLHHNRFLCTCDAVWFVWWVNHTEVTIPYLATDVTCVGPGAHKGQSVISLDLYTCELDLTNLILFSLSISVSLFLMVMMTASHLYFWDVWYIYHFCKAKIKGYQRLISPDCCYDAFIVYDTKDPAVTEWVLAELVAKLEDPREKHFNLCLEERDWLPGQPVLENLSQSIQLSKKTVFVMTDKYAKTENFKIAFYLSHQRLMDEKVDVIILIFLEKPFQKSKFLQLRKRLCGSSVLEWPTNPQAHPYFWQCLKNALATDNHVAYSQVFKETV
The experiment in a line: TLR7 inhibition reporter assay (HEK-Blue cells, SEAP reporter, gardiquimod stimulation). Conditions: HEK-Blue cells overexpressing human TLR7, SEAP reporter, gardiquimod 7.5 μM. The essentials: as §1

As usually defined, the IC50 is the concentration at which inhibition is half-maximal. The low end stands for higher potency, the high end for lower potency. `COc1cc(-c2[nH]c3ccc(CCC4CN(C)C4)cc3c2C(C)C)cn2ncnc12` [Example 438]: the IC50 against human TLR9 amounted to 2.1 µM; against human TLR8, 37 nM; against human TLR7, 5 nM.
For `CNC1CCC(c2ccc3[nH]c(-c4cn5cnnc5c(C)c4C)c(C(C)C)c3c2)CC1` (stereo not drawn) [Example 525] the same measures were 4.41 µM, 50 nM and 7 nM.
In the same order, the values of `Cc1c(-c2[nH]c3ccc(C4CC5CN(C6COC6)CC5C4)cc3c2C(C)C)cn2cnnc2c1C` (stereo not drawn) [Example 522] are 12.7 µM, 85 nM and 9 nM.
For `COc1cc(-c2[nH]c3ccc(C4CN(CC(=O)N(C)C)C4)cc3c2C(C)C)cn2ncnc12` [Example 262] the same measures were 22.9 µM, 66 nM and 618 nM.
For the compound `Cc1cc(-c2[nH]c3ccc(C4CCC(NC5CC5)CC4)cc3c2C(C)C)cn2ncnc12` (single isomer, unassigned) [Example 15], the IC50 amounted to 3.59 µM against human TLR9, 8.9 nM against human TLR8 and 4 nM on human TLR7.
In the same order, the values of `Cc1c(-c2[nH]c3ccc(C4CNCCO4)cc3c2C(C)C)cn2ncnc2c1C` (stereo not drawn) [Example 286] are 5.39 µM, 0.73 nM and 1 nM.
For `COc1ccc(CNC2CCC(c3ccc4[nH]c(-c5cc(C)nc(C)c5)c(C(C)C)c4c3)CC2)cc1` (single isomer, unassigned) [Example 50] the same measures were 0.622 µM, 149 nM and 68 nM.
In the same order, the values of `COc1cc(-c2[nH]c3ccc(C4CCC(N5CC[C@H](N(C)C)C5)CC4)cc3c2C(C)C)cn2ncnc12` (stereo partly drawn) [Example 32] are 0.17 µM, 0.16 nM and 0.14 nM.
For the compound `Cc1c(-c2[nH]c3ccc(C4CCC(N5CC(CO)(CO)C5)CC4)cc3c2C(C)C)cn2ncnc2c1C` (single isomer, unassigned) [Example 26], the IC50 was found to be 0.26 µM on human TLR9, 0.84 nM on human TLR8 and 0.92 nM against human TLR7.
In the case of `Cc1cc(-c2[nH]c3ccc(C4CCC(N5CCCC(F)(F)C5)CC4)cc3c2C(C)C)cn(C)c1=O` (stereo not drawn) [Example 468], the figures for the IC50 against human TLR9, at human TLR8 and at human TLR7 were above 50 µM, 219 nM and 280 nM, respectively.
For `COc1cc(-c2[nH]c3ccc(C4CCC(C)(NC(=O)CN(C)C)CC4)cc3c2C(C)C)cn2ncnc12` (stereo not drawn) [Example 154, 2-(dimethylamino)-N-(4-(3-isopropyl-2-(8-methoxy-[1,2,4]triazolo[1,5-a]pyridin-6-yl)-1H-indol-5-yl)-1-methylcyclohexyl)acetamide] the same measures were 5.68 µM, 12 nM and 4 nM.
For `CNC(=O)CNC1CCC(c2ccc3[nH]c(-c4cc(C)nc(C)c4)c(C(C)C)c3c2)CC1` (single isomer, unassigned) [Example 179, 2-((4-(2-(2,6-dimethylpyridin-4-yl)-3-isopropyl-1H-indol-5-yl)cyclohexyl)amino)-N-methylacetamide] the same measures were 0.767 µM, 3.5 nM and 2 nM.
In the case of `Cc1cc(-c2[nH]c3ccc(C4CN(CCS(C)(=O)=O)CCO4)cc3c2C(C)C)cc(C)n1` (stereo not drawn) [Example 353], the IC50 was above 50 µM against human TLR9, 31 nM at human TLR8 and 95 nM at human TLR7.
In the same order, the values of `Cc1c(-c2[nH]c3ccc(CC4CNC4)cc3c2C(C)C)cn(C)c(=O)c1C` [Example 417] are 2.11 µM, 36 nM and 76 nM.
In the same order, the values of `Cc1c(-c2[nH]c3ccc(CC4CN(C(=O)CN(C)C)C4)cc3c2C(C)C)cn2ncnc2c1C` [Example 436] are 10.8 µM, 11 nM and 3 nM.
Take `Cc1cc(-c2[nH]c3ccc(C4CN(C)CCO4)cc3c2C(C)C)cn2ncnc12` (stereo not drawn) [Example 297]: the IC50 is 6.63 µM on human TLR9, 0.61 nM at human TLR8 and 2 nM on human TLR7.
For `COc1cc(-c2[nH]c3ccc(C4CN(CC(=O)N(C)C)CCO4)cc3c2C(C)C)cn2ncnc12` (stereo not drawn) [Example 314] the same measures were above 50 µM, 13 nM and 24 nM.
In the same order, the values of `Cc1c(-c2[nH]c3ccc(C4CCC(N(C)CCS(C)(=O)=O)CC4)cc3c2C(C)C)cn2ncnc2c1C` (stereo not drawn) [Example 151] are 3.34 µM, 0.37 nM and 0.62 nM.
For the compound `Cc1c(-c2[nH]c3ccc(C4CCC(N5CCOCC5)CC4)cc3c2C(C)C)cn2ncnc2c1C` (single isomer, unassigned) [Example 92], the IC50 against human TLR9 worked out at 2.68 µM; at human TLR8, 0.33 nM; on human TLR7, 0.39 nM.
